# Assay results from patent publication US7601713B2, “Kinase inhibitors and their uses” (Rigel Pharmaceuticals, Inc., priority 2005, dated 2009).
# Experiments:
# [1] = system: JAK kinases (JAK1 and JAK3); assay: JAK inhibition: IL-4-stimulated CD23 upregulation in human Ramos B-cells, FACS; assay type: cell-based; details: IL-4 stimulated Ramos B-cells, read-out: IC50, inhibition of JAK kinases in cellular assay
# Method: JAK inhibition was tested in human Ramos B-cells activated with IL-4. Twenty to 24 hours post stimulation, the cells are stained for upregulation of CD23 and analyzed by FACS. Stimulation of the B-cells with IL-4 leads to the activation of the JAK/STAT pathway through phosphorylation of the JAK kinase JAK1 and JAK3, which in turn phosphorylate and activate transcription of factor […].
# For the assay, human Ramos B-cells (ATCC, Catalog No. CRL-1596) are cultured in RPMI 1640 medium (Cellgro, Catalog No. 10-040-CM) containing 10% fetal bovine serum (JRH, Catalog No. 12106-500M) according to the propagation protocol supplied with the cells, and maintained at a density of approximately 3.5×10^5 cells/ml. The day before the assay, the cells are diluted to 3.5×10^5 cells/ml to insure they are in the logarithmic growth phase. The cells are spun down, and suspended in RPMI 1640 medium containing 5% fetal bovine serum to a density of 3.5×10^4 cells/ml and aliquots dispensed into a 96-well tissue culture plate. Cells are incubated with test compound (dissolved in DMSO) or DMSO (control) for 1 hr at 37° C. and then stimulated with IL-4 (Pepotech, Catalog No. 200-04) for 20-24 hours (final concentration is 50 Units/ml). Cells are then spun down, stained with anti-CD23-PE antibody (BD Pharmigen, Catalog No. 555711) and analyzed by FACS.
# [2] = target: T1, Axl kinase (Homo sapiens, UniProt P30530); assay: Phospho-Akt in-cell Western assay (Axl antibody cross-linking, Hela cells); assay type: cell-based; details: phospho-Akt readout, read-out: IC50, inhibition of Axl kinase
# T1 construct: endogenous in cells; host or cells: HeLa cells
# T1 sequence (P30530 26-894): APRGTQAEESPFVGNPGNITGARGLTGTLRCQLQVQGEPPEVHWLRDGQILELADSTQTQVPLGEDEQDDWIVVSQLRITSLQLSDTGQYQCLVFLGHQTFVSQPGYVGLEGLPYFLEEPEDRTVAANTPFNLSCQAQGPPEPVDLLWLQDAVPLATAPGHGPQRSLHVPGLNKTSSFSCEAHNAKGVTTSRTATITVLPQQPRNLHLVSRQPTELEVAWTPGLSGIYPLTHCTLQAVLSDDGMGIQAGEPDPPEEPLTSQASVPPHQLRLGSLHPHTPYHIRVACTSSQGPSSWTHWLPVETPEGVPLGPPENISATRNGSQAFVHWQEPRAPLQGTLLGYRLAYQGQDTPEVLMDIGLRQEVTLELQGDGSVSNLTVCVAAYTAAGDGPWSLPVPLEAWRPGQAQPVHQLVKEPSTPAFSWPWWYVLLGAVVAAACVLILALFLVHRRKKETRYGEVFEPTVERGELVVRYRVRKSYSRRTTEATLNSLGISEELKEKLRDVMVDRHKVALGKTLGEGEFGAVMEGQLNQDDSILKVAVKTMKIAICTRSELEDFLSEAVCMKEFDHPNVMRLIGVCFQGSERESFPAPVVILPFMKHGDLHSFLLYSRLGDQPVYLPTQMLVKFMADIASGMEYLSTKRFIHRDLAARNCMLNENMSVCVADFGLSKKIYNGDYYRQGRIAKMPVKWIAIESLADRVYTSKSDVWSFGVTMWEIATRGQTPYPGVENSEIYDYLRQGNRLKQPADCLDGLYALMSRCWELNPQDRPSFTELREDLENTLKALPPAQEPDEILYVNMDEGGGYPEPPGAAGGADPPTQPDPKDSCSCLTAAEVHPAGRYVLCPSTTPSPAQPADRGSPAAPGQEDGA
# Method: The compounds of the invention were tested in the following assay for their ability to inhibit Axl activity.
# Phospho-Akt in-Cell Western Assay
# Starvation medium: For Axl stimulation: 0.5% FCS (fetal calf serum) in DMEM, plus Axl/Fc (extracellular domain of AXL fused to immunoglobulin Fc region) (R&D, 154-AL) 500 ng/mL.
# Axl antibody cross-linking: • 1st: Mouse anti-Axl (R&D, MAB 154). • 2nd: Biotin-SP-conjugated AffiniPure goat anti-mouse IgG (H+L) (Jackson ImmunoResearch #115-065-003).
# Primary antibody: Rabbit anti-human Phospho-Akt antibody (Cell Signaling 9271): 1×250 diluted in blocking buffer.
# Secondary antibody: HRP (horse radish peroxidase)-conjugated Goat anti-Rabbit secondary, stock solution: Jackson lmmunoResearch (Goat anti-Rabbit HRP, #111-035-144) 1:1 diluted in glycerol, store at −20° C. The working solution: 1×2000 dilution of stock in blocking buffer.
# A 96 well TC (tissue culture treated) plate was coated with 10 μg/mL poly-L-Lysine at 37° C. for 30 min, washed twice with PBS, and air-dried for 5 minutes before cells were added. Hela cells were seeded at 10,000 cells/well and the cells were starved in 100 μL starvation medium containing Axl/Fc for 24 hrs.
# The cells were pre-treated with test compounds by adding 100 μL of 2× test compound to the starvation medium on the cells. The cells were incubated at 37° C. for 1 hr before stimulation.
# The cells were stimulated by Axl-antibody cross-linking as follows: A 5× 1st/2nd Axl antibody mixture was made (37.5 μg/mL 1st/100 μg/mL 2nd) in starvation medium and nutated at 4° C. with thorough mixing for 1-2 hours for clustering. The resulting mix was warmed to 37° C. 50 μL of 5× Axl 1st/2nd of antibody cluster was added to the cells and the cells were incubated at 37° C. for 5 min.
# After 5 minutes stimulation, the plate was flicked to remove medium and the plate was tapped onto paper towels. Formaldehyde (4.0% in PBS, 100 μL) was added to fix the cells and the cells were incubated at ambient temperature for 20 min without shaking.
# The cells were washed with a plate washer buffer to remove the formaldehyde solution. The plate was flicked to remove excess wash buffer and tapped onto paper towels. Quenching buffer (100 μL) was added to each well and the cells were incubated at ambient temperature for 20 minutes without shaking.
# The cells were washed with a plate washer buffer to remove the quenching buffer. Blocking buffer (100 μL) was added and the cells were incubated at ambient temperature for at least an hour with gentle shaking.
# The cells were washed with a plate washer buffer and diluted primary antibody (50 μL) was added to each well (blocking buffer was added to the negative control wells instead). The plates were incubated overnight at 4° C. with gentle shaking.
# The wash buffer was removed, diluted secondary antibody (100 μL) was added, and the cells were incubated at ambient temperature for 1 hour with gentle shaking. During the incubation, the chemiluminescent reagent was brought to ambient temperature.
# The secondary antibody was removed by washing the cells 1× with wash buffer, 1× with PBS by plate washer. The PBS was removed from the plate and the chemiluminescent reagent (80 μL: 40 μL A and 40 μL B) was added to each well at ambient temperature.
# The resulting chemiluminescence was read with a Luminomitor within 10 minutes to minimize changes in signal intensity. After reading the chemiluminescence, the cells were washed 1× with wash buffer and 1× with PBS by plate washer. The plate was tapped onto paper towels to remove excess liquid from wells and air-dried at ambient temperature for 5 minutes.
# Crystal Violet working solution (60 μL) was added to each well and the cells were incubated at ambient temperature for 30 min. The crystal violet solution was removed, and the wells were rinsed with PBS, then washed 3× with PBS (200 μL) for 5 minutes each.
# 5% SDS solution (70 μL) was added to each well and the cells were incubated on a shaker for 30 min at ambient temperature. […]
Structure (SMILES),IC50 [1] [µM],IC50 [2] [µM]
"CONC(=O)C1C2C=CC(C2)C1Nc1nc(Nc2cccc(OC)c2)nc2[nH]ccc12 (racemic) [Compound 233, Racemic-(2-exo,3-exo)-N4-(N-methoxy-3-aminocarbonylbicyclo [2.2.1]hept-5-en-2-yl)-N2-(3-methoxyphenyl)-1H-pyrrolo[2,3-d]pyrimidine-2,4-diamine]",< 5,< 5
"NC(=O)C1C2C=CC(C2)C1Nc1nc(Nc2cccc(O)c2)nc2ccccc12 (racemic) [Compound 102, Racemic-(2-exo,3-exo)-N4-(3-aminocarbonylbicyclo[2.2. 1]hept-5-en-2-yl)-N2-(3-hydroxy)phenyl-2,4-quinazoline-diamine]",< 5,
"NC(=O)C1C2CCC(C2)C1Nc1nc(Nc2ccc(N3CCCCC3)cc2)nc2[nH]ccc12 (racemic) [Compound 168, Racemic-(2-exo,3-exo) N4-(3-aminocarbonylbicyclo[2.2. 1]hept-2-yl)-N2-[4-(piperidin-1-yl)phenyl]-1H-pyrrlol[2,3-d]pyrimidine-2,4-diamine]",> 10,
"Cc1csc2c(NC3C4C=CC(C4)C3C(N)=O)nc(Nc3ccc(S(N)(=O)=O)cc3)nc12 (racemic) [Compound 242, Racemic-(2-exo,3-exo-)-7-methyl-N4-(3-aminocarbonylbicyclo [2.2.1]hept-5-en-2-yl)-N2-(4-aminosulfonyl)phenyl-thieno[3,2-d]pyrimidine-2,4-diamine]",< 5,> 10
"Cc1csc2c(NC3C4C=CC(C4)C3C(N)=O)nc(Nc3ccc(OCCN4CCCC4)cc3)nc12 (racemic) [Compound 240, Racemic-(2-exo,3-exo-)-7-methyl-N4-(3-aminocarbonylbicyclo [2.2.1]hept-5-en-2-yl)-N2-[4-[2-(1-pyrrolidinyl)ethoxy]phenyl]-thieno[3,2-d]pyrimidine-2,4-diamine]",< 5,< 10
"COc1cc2nc(Nc3cccc(O)c3)nc(NC3C4C=CC(C4)C3C(N)=O)c2cc1OC (racemic) [Compound 101, Racemic-(2-exo,3-exo)-N4-(3-aminocarbonylbicyclo[2.2. 1]hept-5-en-2-yl)-6,7-dimethoxy-N2-(3-hydroxy)phenyl-2,4-quinazoline-diamine]",< 5,

# Other lines, results leading:
IC50 [1] [µM],IC50 [2] [µM],Structure (SMILES)
> 10,,"Cc1cc2cc(Nc3nc(NC4C5C=CC(C5)C4C(N)=O)c4nc[nH]c4n3)ccc2[nH]1 (racemic) [Compound 150, Racemic-(2-exo,3-exo-)-N6-(3-aminocarbonylbicyclo[2.2. 1]hept-5-en-2-yl)-N2-(2-methyl-1H-indol-5-yl)-1H-purine-2,6-diamine]"
< 5,,"NC(=O)c1cccc(Nc2nc(NC3C4C=CC(C4)C3C(N)=O)c3nc[nH]c3n2)c1 (racemic) [Compound 122, Racemic-(2-exo,3-exo)-N6-(3-aminocarbonylbicyclo[2.2. 1]hept-5-en-2-yl)-N2-(3-aminocarbonyl)phenyl-1H-purine-2,6-diamine]"
> 10,< 10,"NC(=O)C1C2C=CC(C2)C1Nc1nc(Nc2cccc(OCc3ccncc3)c2)nc2[nH]cnc12 (racemic) [Compound 224, Racemic-(2-exo,3-exo-)-N6-(3-aminocarbonylbicyclo [2.2.1]hept-5-en-2-yl)-N2-[3-(4-pyridinylinethoxy)] phenyl-1H-purine-2,6-diamine]"
> 10,,"NC(=O)C1C2C=CC(C2)C1Nc1nc(Nc2ccc3c(c2)OCO3)nc2[nH]cnc12 (racemic) [Compound 125, Racemic-(2-exo,3-exo)-N6-(3-aminocarbonylbicyclo[2.2. 1]hept-5-en-2-yl)-N2-(1,3-benzodioxol-5-yl)-1H-purine-2,6-diamine]"
> 10,< 10,"NC(=O)C1C2C=CC(C2)C1Nc1nc(Nc2cccc(OCc3ccncc3)c2)nc2[nH]ccc12 (racemic) [Compound 223, Racemic-(2-exo,3-exo)-N4-(3-aminocarbonylbicyclo [2.2.1]hept-5-en-2-yl)-N2-[3-(4-pyridinylmethoxy)] phenyl-1H-pyrrolo[2,3-d]pyrimidine-2,4-diamine]"
> 10,< 5,"NC(=O)C1C2C=CC(C2)C1Nc1nc(Nc2cccc(OCc3cccnc3)c2)nc2[nH]cnc12 (racemic) [Compound 226, Racemic-(2-exo,3-exo-)-N6-(3-aminocarbonylbicyclo [2.2.1]hept-5-en-2-yl)-N2-[3-(3-pyridinylmethoxy)phenyl]-1H-purine-2,6-diamine]"
< 5,,"NC(=O)[C@@H]1[C@H](Nc2nc(Nc3ccc4[nH]ccc4c3)nc3[nH]cnc23)[C@H]2C=C[C@@H]1C2 [Compound 147, (1R,2R,3S,4S)-N6-(3-Aminocarbonylbicyclo[2.2. 1]hept-5-en-2-yl)-N2-(1H-indol-5-yl)-1H-purine-2,6-diamine]"
> 10,< 5,"NC(=O)C1C2C=CC(C2)C1Nc1nc(Nc2cccc(OCc3cccnc3)c2)nc2[nH]ccc12 (racemic) [Compound 225, Racemic-(2-exo,3-exo)-N4-(3-aminocarbonylbicyclo [2.2.1]hept-5-en-2-yl)-N2-[3-(3-pyridinylmethoxy)] phenyl-1H-pyrrolo[2,3-d]pyrimidine-2,4-diamine]"
